Data on five compounds can be found in publication PMC4160109 (Clinical cancer research : an official journal of the …, 2014).

In one data set the test system is advanced solid tumors. To be noted: cited from earlier work.
Another data set concerns patients. The conditions noted are these: cited from earlier work.
Data set [1] can be described thus: Plasma PK of oral rigosertib in phase I patients. In kind it is in vivo, human. The conditions noted are these: for CI7F: plasma, mean ± SD.
Data set [2] in a line: Urine PK of oral rigosertib in phase I patients. It is filed as in vivo, human.
Data set [3] has as its system advanced solid malignancies. Kind of data set: Phase I antitumor activity. In kind it is in vivo, human. The conditions noted are these: for median time on study: all patients.
The next data set concerns dogs. Description: Preclinical severely toxic dose in 10% of animals, dogs. It is filed as in vivo, dog.
In a further data set the test system is rats. Kind of data set: Preclinical severely toxic dose in 10% of animals, rats. In kind it is in vivo, rat. To be noted: twice daily.
Data set [4] concerns patients with advanced solid malignancies. To be noted: in vivo.

Regarding `CC[C@@H]1C(=O)N(C)c2cnc(Nc3ccc(C(=O)NC4CCN(C)CC4)cc3OC)nc2N1C1CCCC1` [BI-2536], in the data set with advanced solid tumors, the “phase I CBR” value was 32%, the “phase I PR” value is 0% and the “phase I stable disease” value was 32%.
On to `Nc1cc(C(F)(F)F)c(-c2cc(N3CCOCC3)nc(N3CCOCC3)n2)cn1` [BKM120], for which the “phase I RR” value with advanced solid tumors is recorded as 2.8%.
Turning to `C=CCN(/C=C1/C(=O)O[C@H](COC)[C@@]2(C)C1=C(O)C(=O)C1=C2[C@H](OC(C)=O)C[C@]2(C)C(=O)CC[C@@H]12)CC=C` [PX-866], in the data set on advanced solid tumors, the “phase I RR” value is 0%. Moreover, the hyperglycemia entry in the data set on patients is on record as “do not cause hyperglycemia”.
Take `COc1ccc(Cl)c(Nc2nc3ccccc3nc2NS(=O)(=O)c2cccc(NC(=O)C(C)(C)N)c2)c1` [XL147]: in the data set on patients, the hyperglycemia result is on record as “do not cause hyperglycemia”.
Consider `COc1cc(OC)c(/C=C/S(=O)(=O)Cc2ccc(OC)c(NCC(=O)O)c2)c(OC)c1` [rigosertib, sodium (E)-2-{2-methoxy-5-[(2′,4′ ,6′-trimethoxys-tyrylsulfonyl)methyl]phenylamino}acetate], for which, in data set [1] (oral 70-700 mg twice daily), the “plasma pharmacokinetics, dose dependence” value was “linear and dose proportional”. The CI7F in data set [1] (70 mg twice daily oral, Day 1 cycle 1, n = 3) is on record as 71.54 ±42.87 I7h; in data set [1] (140 mg twice daily oral, Day 1 cycle 1, n = 4) it was 171.29 ± 155.74 I7h; in data set [1] (140 mg twice daily oral, Day 21 cycle 1, n = 4), 55.64 ± 36.62 I7h; in data set [1] (280 mg twice daily oral, Day 1 cycle 1, n = 5), 122.84 ± 123.67 I7h; in data set [1] (280 mg twice daily oral, Day 21 cycle 1, n = 3), 127.45 ±66.13 I7h; in data set [1] (560 mg twice daily oral, Day 1 cycle 1, n = 32), 93.28 ± 58.24 I7h. Moreover, the CI7F in data set [1] (560 mg twice daily oral, Day 21 cycle 1, n = 24) was determined as 116.33 ±56.32 I7h; in data set [1] (700 mg twice daily oral, Day 1 cycle 1, n = 7), 64.62 ± 34.70 I7h; in data set [1] (700 mg twice daily oral, Day 21 cycle 1, n = 2), 149.9 ±51.79 I7h. Further, the 24-hour urine excretion in data set [2] (nonsymptomatic patients, mean (SD 2.8)) is 18.7 mg; in data set [2] (patients with urinary symptoms, mean (SD 7.9)), 16.6 mg. Further, the “overall response rate (RR)” value in data set [3] (2/46 evaluable patients, all dose levels) was 4.3%. In addition, the “duration of stable disease” value in data set [3] (8 patients with stable disease for 12 or more weeks, range) was 12–36 weeks. The “clinical benefit rate (CBR = CR + PR + stable disease)” value in data set [3] (10/46 evaluable patients, stable disease ≥ 12 weeks) is given as 21.7%. Further, in data set [3] (all dose levels), the “patients with stable disease for ≥ 12 weeks” value is on record as 8. In addition, the “median time on study” value in data set [3] is listed as 2 cycles; in data set [3] (range, 1–101+), 6 weeks. Also, the best response entry in data set [3] (one patient, platinum-refractory HPV-positive HNSCC, 560 mg twice daily) is “partial response”. Also, the time on study is recorded as ≥ 101 weeks in data set [3] (patient with CR, HPV-negative HNSCC, 280 mg twice daily) and 50 weeks in data set [3] (patient with PR, HPV-positive HNSCC, 560 mg twice daily). In addition, in data set [3] (patient with PR, HPV-positive HNSCC, 560 mg twice daily, cycle 5), the “tumor size decrease from its maximum” value was determined as 40%. The results for the “human equivalent of severely toxic dose in 10% of dogs and rats” value in the data set on dogs (60 kg human) and in the data set with dogs (60 kg human with a safety factor of 10) were 12.2 mg/kg and 73 mg, respectively. In addition, the “severely toxic dose in 10% of animals” value is on record as 75 mg/kg in the data set with dogs (dogs, twice daily) and 75 mg/kg in the data set with rats. The “Fatigue, treatment-related AE (patients)” value in data set [4] (human) was 1. In addition, the “Hematuria, treatment-related AE (patients)” value in data set [4] (human) is 2. The “Pelvic pain, treatment-related AE (patients)” value in data set [4] (human) is recorded as 1. In addition, the “median time to onset of urinary symptoms” value in data set [4] (human) amounted to 4 weeks. Further, the “patients experiencing serious AEs” value in data set [4] (human) is listed as 13. For the same compound, the “patients with doses held for toxicity” value in data set [4] (human) came out at 14. Besides, the “patients with doses reduced for toxicity” value in data set [4] (human) is on record as 13. The “patients with grade 2 or 3 urinary symptoms” value in data set [4] (human) came to 15. In addition, the “patients with serious AE considered possibly drug-related” value in data set [4] (human) was determined as 1. In addition, the “time to resolution of urinary symptoms after drug discontinuation” value in data set [4] (human) is ≤ 14 days. Moreover, in data set [4] (human, 21 days), the “Patients with a DLT” value is listed as 2. Further, the “patients with a DLT” value in data set [4] (human, 21 days) was found to be 1. The “recommended phase II dose (RP2D)” value in data set [4] (human, po, 21 days) stood at 560 mg. In addition, the “patients with grade 3 nonhematologic toxicity” value in data set [4] is given as “Seven”. Further, the “tolerability of dose level” value in data set [4] is recorded as “considered intolerable”. Also, the Dose-limiting toxicities result in data set [4] (po) is “hematuria and dysuria”.
